Data: PMC6338836, “Structural basis for prodrug recognition by the SLC15 family of proton-coupled peptide transporters” (Proceedings of the National Academy of Sciences of the …, 2019)
Residues, ends and D or L forms follow the SMILES beside them.

Key:
[1] = design: method as in PMID 23264448, PMID 9610386; settings: cited from earlier work
PepTSh Y41A = experiment: IC50 competition assay, PepTSh Y41A variant; format: biochemical, Staphylococcus hominis; settings: PepTSh Y41 removed (Y41A)
PepTSh Y163A = experiment: IC50 competition assay, PepTSh Y163A variant; format: biochemical, Staphylococcus hominis; settings: PepTSh Y163 removed (Y163A)
PepTSh Y41F = experiment: IC50 competition assay, PepTSh Y41F variant; format: biochemical, Staphylococcus hominis; settings: for IC50: PepTSh variant Y41F
PepTSh = experiment: IC50 competition assay, PepTSh WT proteoliposomes; format: biochemical, Staphylococcus hominis; settings: for recognition: competition with AlaAla: N- or C-terminally blocked peptides
PepTSh N167A = experiment: IC50 competition assay, PepTSh N167A variant; format: biochemical, Staphylococcus hominis
PepTSh N426A = experiment: IC50 competition assay, PepTSh N426A variant; format: biochemical, Staphylococcus hominis; settings: PepTSh N426 removed (N426A)
PepTSh N426L = experiment: IC50 competition assay, PepTSh N426L variant; format: biochemical, Staphylococcus hominis; settings: PepTSh N426 replaced with leucine (N426L)
PepTSh Y79F = experiment: IC50 competition assay, PepTSh Y79F variant; format: biochemical, Staphylococcus hominis
PepT1 = test system: PepT1; design: method as in PMID 12649372; settings: cited from earlier work
(UniProt Z9YNX0M2M8) = experiment: IC50 competition assay, PepTSh WT proteoliposomes; format: biochemical, Staphylococcus hominis; settings: competition for dipeptide uptake

SMILES: Nc1nc2c(ncn2COCCO)c(=O)[nH]1 [acyclovir]
- oral bioavailability [1]: 15%

SMILES: CC(C)[C@H](N)C(=O)OCCOCn1cnc2c(=O)[nH]c(N)nc21 [valacyclovir]
- effect of variant on affinity compared with WT (PepTSh Y41A): little effect on the affinity
- effect of variant on recognition (PepTSh Y163A): abrogated valacyclovir recognition
- IC50 (PepTSh Y41F): 1300 µM
- IC50 (PepTSh; competition for dipeptide uptake): 7400 µM
- oral bioavailability [1]: > 50%
- effect of variant on affinity / IC50 compared with WT (PepTSh N167A): little effect on the affinity
- effect of variant on affinity compared with WT (PepTSh N426A): improved affinity
- effect of variant on affinity compared with WT (PepTSh N426L): negligible effect

SMILES: C[C@H](N)C(=O)N[C@@H](C)C(N)=O [H-AA-NH2] (H-Ala-Ala-NH2)
- recognition: competition with AlaAla (PepTSh): can compete with AlaAla

SMILES: C[C@H](N)C(=O)N[C@@H](C)C(=O)N[C@@H](C)C(=O)O [Ala-Ala-Ala, trialanine]
- effect of variant on IC50 compared with WT (PepTSh Y41F; PepTSh Y41F): no effect
- IC50 (PepTSh Y79F; PepTSh variant Y79F): 5.3 µM

SMILES: C[C@H](N)C(=O)N[C@@H](C)C(=O)O [Ala-Ala, dialanine] (H-Ala-Ala-OH)
- IC50 (PepTSh Y41F): 866 µM
- effect of variant on transport compared with WT (PepTSh Y79F; PepTSh Y79F): limited effect

SMILES: CC(=O)N[C@@H](C)C(=O)N[C@@H](C)C(=O)O [Ac-AA-OH] (Ac-Ala-Ala-OH)
- recognition: competition with AlaAla (PepTSh): can no longer bind the

SMILES: NCC(=O)CCC(=O)O [5-aminolevulinic acid]
- IC50 (PepT1): 2100 µM
- IC50 ((UniProt Z9YNX0M2M8)): 10400 µM
- effect of variant on affinity / IC50 compared with WT (PepTSh N167A): unchanged
